From patent publication US20250302973A1, “POLYMER CONJUGATES OF DRUGS WITH CENTRAL NERVOUS SYSTEM (CNS) EFFECTS AND […] BLOCKING ACTIVITY AND/OR IMMUNE SYSTEM […]” (UNIVERSITY OF PADOVA, priority 2022, published 2025)

Key:
A-549 cells = experiment: A-549 lung cells co-cultured 24 hours with THP-1-derived macrophages, mRNA expression of inflammatory cytokines; settings: 1 μM; A-549 cells incubated (co-culture) with macrophages derived from THP-1 cells; effect only in presence of macrophages
C57BL6/J male mice = experiment: Open field test, total locomotor activity as distance travelled; format: in vivo; settings: intraperitoneal 0.3 mg/kg MK-801 or equivalent dose, test 10 min after injection, compared with vehicle, n=7 per group
Protocol: The present inventors used 7 C57BL6/J male (3-4 months old) mice per treatment group, keeping them in a temperature-controlled room (22° C.) on a 12:12 h light-dark cycle (light on at 7:00 AM) and fed a standard pellet diet and tap water ad libitum. Experimental mice were habituated to the testing room by transferring them to the behavioural room 30 min prior to beginning of the test. The open field test was conducted between 9:00 am and 4:00 pm. MK-801 and derivatives were dissolved in a vehicle composed by 0.9% NaCl physiological solution. Each mouse was singly placed at the corner of a grey-painted open field arena (40×40×30 cm) 10 min after the intraperitoneal injection (Volume of injection 0.1 mL) of either Vehicle, 0.3 mg/kg MK-801, or the equivalent dose of 0.3 mg/kg MK-801 of the PEG 4 MK-801, PEG 6 MK-801, PEG 8 MK-801 or PEG 10 MK-801 derivatives. Using an automated behavioral tracking system (Videotrack, View Point Life Science), we determined the total locomotor activity measured as distance travelled by the animal during the 10 min duration of the test.

| Compound | mRNA expression of the inflammatory cytokine CCL-2 (A-549 cells) | mRNA expression of the inflammatory cytokine IL-1β (A-549 cells) | distance travelled by the mice during 10 min in the Open Field Test (C57BL6/J male mice) |
| --- | --- | --- | --- |
| CCC(=O)C(C[C@H](C)N(C)C)(c1ccccc1)c1ccccc1 [esmethadone, (S)-methadone] | reduces | reduces |  |
| C[C@]12N[C@H](Cc3ccccc31)c1ccccc12 [MK-801, dizocilpine] | reduces | reduces | significantly increased |
